Reference: publication PMC7316778 (Nature Communications, 2020)
Several values for one entry are separate records, joined by “and”; a condition that tells them apart may be missing. Equal values may be shown once. Read-outs that look alike come from different tables or passages of the source.

Tests used:
Assay in all cases: SelectScreen kinase assay
EGFR (ErbB1) = EGFR (ErbB1) (Homo sapiens, UniProt P00533)
Method: (§1) Selectivity profiling assays were performed by the Invitrogen SelectScreen™ Services. […] The concentration of ATP was selected to be equal to the KM, unless indicated otherwise.

INSRR (IRR) = INSRR (IRR) (Homo sapiens, UniProt P14616); settings: 1 h, 1 μM WEL028, 1 h preincubation
Method: as §1

TLK1 = TLK1 (Homo sapiens, UniProt Q9UKI8)
Method: as §1

FER = FER (Homo sapiens, UniProt P16591)
Method: as §1

STK25 (YSK1) = STK25 (YSK1) (Homo sapiens, UniProt O00506)
Method: as §1

EPHA8 = EPHA8 (Homo sapiens, UniProt P29322)
Method: as §1

RIPK2 = RIPK2 (Homo sapiens, UniProt O43353)
Method: as §1

PIP5K1C = PIP5K1C (Homo sapiens, UniProt O60331)
Method: as §1

MAP3K5 (ASK1) = target: T1, MAP3K5 (ASK1) (Homo sapiens, UniProt Q99683)
T1 sequence (Q99683 1-1374): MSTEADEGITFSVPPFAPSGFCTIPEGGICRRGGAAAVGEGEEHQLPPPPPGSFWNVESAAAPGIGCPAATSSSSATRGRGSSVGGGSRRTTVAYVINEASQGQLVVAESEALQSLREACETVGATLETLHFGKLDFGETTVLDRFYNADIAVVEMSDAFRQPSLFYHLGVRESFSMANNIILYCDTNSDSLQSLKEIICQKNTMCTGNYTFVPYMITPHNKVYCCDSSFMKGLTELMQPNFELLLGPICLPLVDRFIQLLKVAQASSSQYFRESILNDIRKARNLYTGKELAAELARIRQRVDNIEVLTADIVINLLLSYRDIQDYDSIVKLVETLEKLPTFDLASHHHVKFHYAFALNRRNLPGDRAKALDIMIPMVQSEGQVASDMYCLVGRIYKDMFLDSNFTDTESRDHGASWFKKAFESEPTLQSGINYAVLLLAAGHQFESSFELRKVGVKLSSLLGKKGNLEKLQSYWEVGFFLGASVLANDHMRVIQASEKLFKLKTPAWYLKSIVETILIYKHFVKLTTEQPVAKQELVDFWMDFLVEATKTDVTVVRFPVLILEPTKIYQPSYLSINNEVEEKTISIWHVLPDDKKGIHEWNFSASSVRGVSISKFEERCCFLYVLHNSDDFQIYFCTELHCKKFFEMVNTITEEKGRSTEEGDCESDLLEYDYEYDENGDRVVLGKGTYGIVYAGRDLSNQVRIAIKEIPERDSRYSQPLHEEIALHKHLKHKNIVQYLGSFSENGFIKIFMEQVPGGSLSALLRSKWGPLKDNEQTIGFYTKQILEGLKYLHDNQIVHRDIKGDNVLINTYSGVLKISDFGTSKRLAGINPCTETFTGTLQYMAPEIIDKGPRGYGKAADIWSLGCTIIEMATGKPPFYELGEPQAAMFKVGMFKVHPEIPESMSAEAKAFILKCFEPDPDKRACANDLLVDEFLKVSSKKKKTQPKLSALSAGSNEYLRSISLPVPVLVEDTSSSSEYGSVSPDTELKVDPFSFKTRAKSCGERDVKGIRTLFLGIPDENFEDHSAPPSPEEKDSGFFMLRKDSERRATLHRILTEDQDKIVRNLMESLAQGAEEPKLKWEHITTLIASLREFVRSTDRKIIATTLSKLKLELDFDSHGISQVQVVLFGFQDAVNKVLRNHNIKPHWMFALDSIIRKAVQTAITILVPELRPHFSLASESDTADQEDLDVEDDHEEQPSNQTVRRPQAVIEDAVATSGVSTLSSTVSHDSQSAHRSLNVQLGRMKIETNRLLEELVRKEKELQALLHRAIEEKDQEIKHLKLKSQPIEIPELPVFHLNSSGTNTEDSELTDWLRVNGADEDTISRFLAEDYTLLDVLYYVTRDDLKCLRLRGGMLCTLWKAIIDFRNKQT
Method: as §1

FYN = FYN (Homo sapiens, UniProt P06241)
Method: as §1

PIK3C2A (PI3K-C2 alpha) = PIK3C2A (PI3K-C2 alpha) (Homo sapiens, UniProt O00443); settings: 1 h, 1 μM WEL028, 1 h preincubation
Method: as §1

PDGFRB (PDGFR beta) = PDGFRB (PDGFR beta) (Homo sapiens, UniProt P09619)
Method: as §1

FLT4 (VEGFR3) [1] = target: FLT4 (VEGFR3) (Homo sapiens, UniProt P35916)
Method: as §1

FLT4 (VEGFR3) [2] = settings: IC50 on that kinase divided by IC50 on FES^S700C
Method: as §1

[3] = 1 h, 1 μM WEL028, 1 h preincubation
[4] = read-out: Inhibition at 1 µM (%)

EGFR (ErbB1), sequence (P00533 25-1210): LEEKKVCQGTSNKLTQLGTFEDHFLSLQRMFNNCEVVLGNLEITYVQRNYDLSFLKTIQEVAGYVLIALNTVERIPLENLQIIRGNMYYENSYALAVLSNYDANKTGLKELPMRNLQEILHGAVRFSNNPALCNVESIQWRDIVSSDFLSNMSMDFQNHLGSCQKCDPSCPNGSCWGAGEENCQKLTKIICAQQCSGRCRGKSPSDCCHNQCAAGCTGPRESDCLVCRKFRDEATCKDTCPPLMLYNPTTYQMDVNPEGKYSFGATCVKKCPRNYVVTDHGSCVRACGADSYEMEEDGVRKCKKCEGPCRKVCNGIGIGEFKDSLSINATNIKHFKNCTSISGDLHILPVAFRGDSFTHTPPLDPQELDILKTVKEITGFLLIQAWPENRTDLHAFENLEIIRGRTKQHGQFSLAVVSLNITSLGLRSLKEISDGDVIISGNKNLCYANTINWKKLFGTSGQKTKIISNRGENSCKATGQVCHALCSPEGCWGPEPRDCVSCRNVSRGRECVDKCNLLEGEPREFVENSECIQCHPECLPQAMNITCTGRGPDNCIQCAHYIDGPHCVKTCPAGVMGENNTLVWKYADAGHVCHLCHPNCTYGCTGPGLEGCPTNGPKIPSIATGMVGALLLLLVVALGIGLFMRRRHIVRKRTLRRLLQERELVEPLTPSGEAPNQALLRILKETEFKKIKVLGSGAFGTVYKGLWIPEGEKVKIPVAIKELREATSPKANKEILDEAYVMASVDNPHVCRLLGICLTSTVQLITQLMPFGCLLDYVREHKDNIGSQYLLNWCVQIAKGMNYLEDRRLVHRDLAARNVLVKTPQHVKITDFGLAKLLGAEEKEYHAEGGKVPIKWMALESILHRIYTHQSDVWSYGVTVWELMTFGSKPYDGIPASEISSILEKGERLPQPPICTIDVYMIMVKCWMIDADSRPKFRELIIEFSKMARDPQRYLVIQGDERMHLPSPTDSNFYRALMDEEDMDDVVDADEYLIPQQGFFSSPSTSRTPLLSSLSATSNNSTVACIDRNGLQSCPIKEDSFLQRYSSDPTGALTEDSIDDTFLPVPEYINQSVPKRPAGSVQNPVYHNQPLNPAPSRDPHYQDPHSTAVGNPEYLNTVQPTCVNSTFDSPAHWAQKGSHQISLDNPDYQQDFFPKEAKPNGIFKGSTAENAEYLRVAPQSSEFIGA
PDGFRB (PDGFR beta), sequence (P09619 33-1106): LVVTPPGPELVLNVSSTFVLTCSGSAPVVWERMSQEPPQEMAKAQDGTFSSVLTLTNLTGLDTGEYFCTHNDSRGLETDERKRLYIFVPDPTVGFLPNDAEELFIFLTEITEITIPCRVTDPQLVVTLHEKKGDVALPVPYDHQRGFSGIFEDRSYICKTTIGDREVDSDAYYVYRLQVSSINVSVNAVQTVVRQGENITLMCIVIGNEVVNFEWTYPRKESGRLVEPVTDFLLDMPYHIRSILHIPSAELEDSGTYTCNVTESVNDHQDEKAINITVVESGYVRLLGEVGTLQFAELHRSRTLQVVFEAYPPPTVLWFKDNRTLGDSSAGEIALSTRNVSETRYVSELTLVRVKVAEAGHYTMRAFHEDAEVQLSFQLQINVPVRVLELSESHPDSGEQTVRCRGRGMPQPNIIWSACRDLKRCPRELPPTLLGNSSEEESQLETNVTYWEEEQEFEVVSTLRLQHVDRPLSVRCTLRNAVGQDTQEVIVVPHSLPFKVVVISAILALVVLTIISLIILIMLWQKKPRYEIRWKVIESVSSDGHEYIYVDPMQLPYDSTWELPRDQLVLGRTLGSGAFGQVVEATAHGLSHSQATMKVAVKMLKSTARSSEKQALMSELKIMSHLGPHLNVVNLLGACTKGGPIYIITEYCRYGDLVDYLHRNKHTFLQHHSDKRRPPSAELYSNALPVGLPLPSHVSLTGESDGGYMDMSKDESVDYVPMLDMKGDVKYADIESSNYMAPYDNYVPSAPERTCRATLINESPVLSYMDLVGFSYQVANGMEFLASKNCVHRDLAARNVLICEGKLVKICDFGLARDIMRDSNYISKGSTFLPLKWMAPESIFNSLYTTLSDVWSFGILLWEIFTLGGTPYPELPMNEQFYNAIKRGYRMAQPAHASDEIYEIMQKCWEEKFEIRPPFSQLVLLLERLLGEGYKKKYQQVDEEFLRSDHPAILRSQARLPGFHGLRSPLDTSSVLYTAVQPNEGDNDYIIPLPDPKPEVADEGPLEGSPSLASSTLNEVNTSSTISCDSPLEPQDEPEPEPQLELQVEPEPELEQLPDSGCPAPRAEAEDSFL
FLT4 (VEGFR3) (Homo sapiens, UniProt P35916), sequence (P35916 25-1363, species assumed): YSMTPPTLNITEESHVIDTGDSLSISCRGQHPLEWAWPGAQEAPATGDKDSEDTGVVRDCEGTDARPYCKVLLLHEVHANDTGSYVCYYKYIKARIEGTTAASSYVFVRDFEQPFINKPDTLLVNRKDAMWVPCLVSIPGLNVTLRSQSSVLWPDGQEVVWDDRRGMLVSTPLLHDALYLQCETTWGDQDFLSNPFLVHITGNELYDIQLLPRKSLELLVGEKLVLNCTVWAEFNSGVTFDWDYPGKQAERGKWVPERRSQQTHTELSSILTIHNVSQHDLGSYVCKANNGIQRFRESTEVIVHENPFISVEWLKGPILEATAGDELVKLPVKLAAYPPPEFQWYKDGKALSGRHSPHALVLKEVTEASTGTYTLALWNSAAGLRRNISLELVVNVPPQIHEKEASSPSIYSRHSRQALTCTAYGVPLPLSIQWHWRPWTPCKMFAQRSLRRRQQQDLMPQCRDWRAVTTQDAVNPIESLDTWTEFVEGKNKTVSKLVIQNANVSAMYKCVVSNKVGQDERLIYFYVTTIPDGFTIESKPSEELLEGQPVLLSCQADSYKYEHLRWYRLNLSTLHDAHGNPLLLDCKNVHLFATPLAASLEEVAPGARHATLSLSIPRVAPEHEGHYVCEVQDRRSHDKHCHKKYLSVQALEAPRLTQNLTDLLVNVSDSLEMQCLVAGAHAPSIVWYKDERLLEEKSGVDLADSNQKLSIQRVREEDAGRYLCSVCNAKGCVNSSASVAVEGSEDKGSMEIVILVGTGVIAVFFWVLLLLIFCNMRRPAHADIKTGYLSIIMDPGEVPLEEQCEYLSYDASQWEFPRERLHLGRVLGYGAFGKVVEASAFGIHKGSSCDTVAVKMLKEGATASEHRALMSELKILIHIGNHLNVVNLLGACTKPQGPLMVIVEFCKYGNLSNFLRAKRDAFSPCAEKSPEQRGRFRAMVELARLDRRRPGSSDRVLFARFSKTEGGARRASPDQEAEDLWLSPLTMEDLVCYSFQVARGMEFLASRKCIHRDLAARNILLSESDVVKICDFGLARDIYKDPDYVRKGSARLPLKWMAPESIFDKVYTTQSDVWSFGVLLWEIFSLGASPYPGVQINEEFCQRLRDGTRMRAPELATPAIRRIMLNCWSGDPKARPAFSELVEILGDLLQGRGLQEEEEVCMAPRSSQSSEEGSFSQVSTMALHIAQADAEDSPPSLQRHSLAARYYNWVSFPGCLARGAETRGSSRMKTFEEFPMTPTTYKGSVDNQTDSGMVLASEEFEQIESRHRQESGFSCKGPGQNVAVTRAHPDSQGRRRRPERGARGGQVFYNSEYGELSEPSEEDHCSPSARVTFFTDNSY
FYN, sequence (P06241 whole entry): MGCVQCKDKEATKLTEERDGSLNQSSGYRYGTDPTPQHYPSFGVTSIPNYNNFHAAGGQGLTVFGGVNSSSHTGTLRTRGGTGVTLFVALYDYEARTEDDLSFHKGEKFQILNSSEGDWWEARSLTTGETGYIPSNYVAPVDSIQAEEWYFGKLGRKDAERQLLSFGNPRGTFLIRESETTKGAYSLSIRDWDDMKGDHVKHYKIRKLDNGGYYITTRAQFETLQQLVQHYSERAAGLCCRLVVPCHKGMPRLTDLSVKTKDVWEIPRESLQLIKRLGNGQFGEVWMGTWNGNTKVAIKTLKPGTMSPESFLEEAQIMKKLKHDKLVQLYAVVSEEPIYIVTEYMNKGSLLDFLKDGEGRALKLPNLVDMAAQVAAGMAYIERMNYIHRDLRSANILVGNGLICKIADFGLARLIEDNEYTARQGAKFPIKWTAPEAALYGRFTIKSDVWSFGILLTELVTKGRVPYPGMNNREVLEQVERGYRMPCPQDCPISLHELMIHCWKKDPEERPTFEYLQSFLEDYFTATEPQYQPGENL
FER, sequence (P16591 whole entry): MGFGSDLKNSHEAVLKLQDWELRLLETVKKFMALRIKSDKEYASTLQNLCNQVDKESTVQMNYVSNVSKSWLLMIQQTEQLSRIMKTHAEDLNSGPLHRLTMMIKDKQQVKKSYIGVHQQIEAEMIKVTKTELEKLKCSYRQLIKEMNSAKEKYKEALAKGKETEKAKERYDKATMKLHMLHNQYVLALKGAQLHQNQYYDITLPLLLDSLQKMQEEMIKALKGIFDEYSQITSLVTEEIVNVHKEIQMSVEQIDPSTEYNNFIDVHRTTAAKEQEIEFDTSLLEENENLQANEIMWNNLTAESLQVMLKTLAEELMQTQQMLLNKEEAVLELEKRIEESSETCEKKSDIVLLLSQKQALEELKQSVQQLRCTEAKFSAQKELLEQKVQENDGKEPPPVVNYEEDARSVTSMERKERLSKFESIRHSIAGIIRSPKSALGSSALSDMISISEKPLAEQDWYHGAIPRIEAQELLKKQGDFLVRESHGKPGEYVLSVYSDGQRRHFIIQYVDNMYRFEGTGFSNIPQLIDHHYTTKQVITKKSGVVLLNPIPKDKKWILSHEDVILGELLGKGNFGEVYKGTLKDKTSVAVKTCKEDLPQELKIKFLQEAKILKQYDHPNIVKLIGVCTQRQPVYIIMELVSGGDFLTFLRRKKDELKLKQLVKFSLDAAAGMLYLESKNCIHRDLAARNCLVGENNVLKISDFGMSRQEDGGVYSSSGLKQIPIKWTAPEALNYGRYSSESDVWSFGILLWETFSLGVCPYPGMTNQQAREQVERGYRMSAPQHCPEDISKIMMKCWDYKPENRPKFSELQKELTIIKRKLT

## C#CCOc1ccc(Nc2ncc(Cl)c(Nc3ccccc3NC(=O)C=C)n2)c(OC)c1 [Compound 6]
EGFR (ErbB1); 1 μM WEL028, 1 h preincubation
  Inhibition (%): 6%
EGFR (ErbB1); EGFR (ErbB1), 1 µM, ZLYTE, ATP Km app, listed as WEL028, 1 µM
  Inhibition at 1 µM (%): 8%
EGFR (ErbB1); read-out: Inhibition at 1 µM (%), EGFR (ErbB1), 1 µM, ZLYTE, ATP Km app
  inhibition at 1 µM: 4%
INSRR (IRR)
  inhibition at 1 µM: 9%
TLK1; [3]
  inhibition at 1 µM: 1%
TLK1; read-out: Inhibition at 1 µM (%), 1 µM, LanthaScreen Binding
  inhibition at 1 µM: 2%
FER; [3]
  inhibition at 1 µM: 23%
FER; FER, 1 µM, ZLYTE, ATP Km app, listed as WEL028, 1 µM
  Inhibition at 1 µM (%): 27%
FER; read-out: Inhibition at 1 µM (%), FER, 1 µM, ZLYTE, ATP Km app
  inhibition at 1 µM: 20%
STK25 (YSK1); 1 µM, ZLYTE, ATP Km app
  Inhibition at 1 µM (%): 15%
STK25 (YSK1); [3]
  inhibition at 1 µM: 5%
EPHA8; 1 h
  inhibition at 1 µM: -7%
EPHA8; [4]
  inhibition at 1 µM: -7%
RIPK2; 1 h
  inhibition at 1 µM: 1%
RIPK2; [4]
  inhibition at 1 µM: 1%
PIP5K1C; PIP5K1C, Adapta, ATP 10, listed as WEL028, 1 µM
  Inhibition at 1 µM (%): 1%
PIP5K1C; read-out: Inhibition at 1 µM (%), PIP5K1C, Adapta, ATP 10
  inhibition at 1 µM: 2%
MAP3K5 (ASK1); [3]
  inhibition at 1 µM: 6%
MAP3K5 (ASK1); MAP3K5 (ASK1), 1 µM, LanthaScreen Binding, listed as WEL028, 1 µM
  Inhibition at 1 µM (%): 8%
MAP3K5 (ASK1); read-out: Inhibition at 1 µM (%), MAP3K5 (ASK1), 1 µM, LanthaScreen Binding
  inhibition at 1 µM: 5%
FYN; [3]
  inhibition at 1 µM: 4%
FYN; FYN, 1 µM, ZLYTE, ATP Km app, listed as WEL028, 1 µM
  Inhibition at 1 µM (%): 0% and 8%
PIK3C2A (PI3K-C2 alpha)
  inhibition at 1 µM: 5%
PDGFRB (PDGFR beta); [3]
  inhibition at 1 µM: 22%
PDGFRB (PDGFR beta); PDGFRB (PDGFR beta), 1 µM, ZLYTE, ATP Km app, listed as WEL028, 1 µM
  Inhibition at 1 µM (%): 23%
PDGFRB (PDGFR beta); read-out: Inhibition at 1 µM (%), PDGFRB (PDGFR beta), 1 µM, ZLYTE, ATP Km app
  inhibition at 1 µM: 21%
FLT4 (VEGFR3) [1]
  IC50: 200 nM
FLT4 (VEGFR3) [1]; [3]
  inhibition at 1 µM: 120%
FLT4 (VEGFR3) [1]; 1 h, log[inhibitor] (M) -5.00, ZLYTE, ATP Km app
  inhibition at 10 µM: 103%
FLT4 (VEGFR3) [1]; 1 h, log[inhibitor] (M) -5.48, ZLYTE, ATP Km app
  inhibition at 3.31 µM: 100%
FLT4 (VEGFR3) [1]; 1 h, log[inhibitor] (M) -5.95, ZLYTE, ATP Km app
  inhibition at 1.12 µM: 95%
FLT4 (VEGFR3) [1]; 1 h, log[inhibitor] (M) -6.43, ZLYTE, ATP Km app
  inhibition at 0.372 µM: 70%
FLT4 (VEGFR3) [1]; 1 h, log[inhibitor] (M) -6.91, ZLYTE, ATP Km app
  inhibition at 0.123 µM: 38%
FLT4 (VEGFR3) [1]; 1 h, log[inhibitor] (M) -7.39, ZLYTE, ATP Km app
  inhibition at 0.04074 µM: 9%
FLT4 (VEGFR3) [1]; 1 h, log[inhibitor] (M) -7.86, ZLYTE, ATP Km app
  inhibition at 0.0138 µM: 4%
FLT4 (VEGFR3) [1]; 1 h, log[inhibitor] (M) -8.82, ZLYTE, ATP Km app
  inhibition at 0.00151 µM: 2%
FLT4 (VEGFR3) [1]; read-out: Inhibition at 1 µM (%), FLT4 (VEGFR3), 1 µM, ZLYTE, ATP Km app
  inhibition at 1 µM: 121%
FLT4 (VEGFR3) [2]
  Apparent fold selectivity: 50 fold
